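Values below derive from 48-hour exposures of cells grown in 96-well plates, with endpoints linearly interpolated between the two concentrations bracketing the appropriate inhibition level. Definition used: TGI = concentration required for complete inhibition of growth.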

Assay in all cases: NCI tumour cell line growth inhibition, 48 h
Test [1] has as its system SNB-19 CNS.
Test [2] relates to SN12C renal.
The test system of test [3] is PC-3 prostate.
The test system of test [4] is EKVX NSCLC.
Test [5] concerns ACHN renal.
The test system of test [6] is 786-0 renal.
Test [7] concerns SR leukemia.
Test [8] relates to K-562 leukemia.
The test system of test [9] is CCRF-CEM leukemia.
The test system of test [10] is HOP-62 NSCLC.
For test [11], the system named is NCI/ADR-RES ovarian.

For `Cc1oc2c(cc(O)c3cc(O)ccc32)c2cccc1-2`, the TGI in test [1], in test [2], in test [3], in test [4], in test [5] and in test [6] was over 100 µM throughout. In addition, the TGI in test [7], in test [8], in [9], in test [10] and in test [11] was over 100 µM throughout.
As to `COc1ncc(/C=C2\OC(=O)c3ccccc32)c(OC)n1`, the TGI in test [1], in test [2], in test [3], in test [4], in test [5] and in test [6] was over 100 µM in each case. Further, the TGI is over 100 µM in [7]; over 100 µM in test [8]; over 100 µM in test [9]; 66 µM in [10]; over 100 µM in test [11].

The record behind these values is PubChem BioAssay (NCI).
